Target: Peptidyl-prolyl cis-trans isomerase A (Homo sapiens) (UniProt P62937)
Assay: Permeation ratio of cell-free CyP binding to intracellular CyP binding
Assay type: cell-based

Sequence of Peptidyl-prolyl cis-trans isomerase A (Homo sapiens) (P62937 whole entry, looked up): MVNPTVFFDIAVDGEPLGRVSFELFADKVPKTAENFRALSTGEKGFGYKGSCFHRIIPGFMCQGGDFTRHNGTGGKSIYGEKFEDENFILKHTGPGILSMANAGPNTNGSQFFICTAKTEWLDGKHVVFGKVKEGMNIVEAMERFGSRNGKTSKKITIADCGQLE

Ratio | Structure (SMILES)
0.8 | CCCC[C@H]1C(=O)N[C@@H](C(C)C)C(=O)N[C@@H](Cc2cccc(O)c2)C(=O)N2CCC[C@H](N2)C(=O)O[C@H](/C(C)=C/C=C/CC[C@H](C)[C@@H](O)C[C@@H]2O[C@@]3(NC(=O)[C@@H](CC)C[C@@H]3C)[C@@H](C)[C@@H](O)[C@H]2C)C/C=C/C=C/[C@H](O)[C@H](C)[C@H]1O
65 | CC[C@H]1C[C@H](C)[C@@]2(NC1=O)O[C@@H](C[C@H](O)[C@@H](C)CCCCCC(C)[C@@H]1CCCCC[C@H](O)[C@H](C)[C@@H](O)[C@@H](CCC(C)=O)C(=O)N[C@@H](C(C)C)C(=O)N[C@@H](Cc3cccc(O)c3)C(=O)N3CCC[C@H](N3)C(=O)O1)[C@H](C)[C@H](O)[C@@H]2C (stereo partly drawn)
270 | CC[C@H]1C[C@H](C)[C@@]2(NC1=O)O[C@@H](C[C@H](O)[C@@H](C)CCCCCC(C)[C@@H]1CCCCC[C@H](O)[C@H](C)[C@@H](O)[C@@H](CCC(C)=O)C(=O)N[C@@H](C(C)C)C(=O)N[C@@H](Cc3ccccc3)C(=O)N3CCC[C@H](N3)C(=O)O1)[C@H](C)[C@H](O)[C@@H]2C (stereo partly drawn)
